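96-well plates; 48 h exposure; 5 concentrations. Endpoints by linear interpolation between flanking doses. Not reached: highest tested concentration assigned. TGI: concentration producing complete growth inhibition.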
Legend:
Assay in all cases: DTP human tumour cell line panel, 48 h
HL-60(TB) leukemia = test system: HL-60(TB) leukemia
U251 CNS = test system: U251 CNS
SNB-78 CNS = test system: SNB-78 CNS
HOP-62 NSCLC = test system: HOP-62 NSCLC
SF-539 CNS = test system: SF-539 CNS
A549 NSCLC = test system: A549 NSCLC
786-0 renal = test system: 786-0 renal
NCI-H460 lung = test system: NCI-H460 lung
OVCAR-8 ovarian = test system: OVCAR-8 ovarian
OVCAR-5 ovarian = test system: OVCAR-5 ovarian
COLO 205 colon = test system: COLO 205 colon
K-562 leukemia = test system: K-562 leukemia
TK-10 renal = test system: TK-10 renal
SK-MEL-2 melanoma = test system: SK-MEL-2 melanoma
IGROV1 ovarian = test system: IGROV1 ovarian
SF-295 CNS = test system: SF-295 CNS
KM20L2 colon = test system: KM20L2 colon
SF-268 CNS = test system: SF-268 CNS
CCRF-CEM leukemia = test system: CCRF-CEM leukemia
UACC-62 melanoma = test system: UACC-62 melanoma
HCC-2998 colon = test system: HCC-2998 colon
OVCAR-4 ovarian = test system: OVCAR-4 ovarian
RPMI-8226 leukemia = test system: RPMI-8226 leukemia
SW-620 colon = test system: SW-620 colon
XF 498 CNS = test system: XF 498 CNS
NCI-H522 lung = test system: NCI-H522 lung
UACC-257 melanoma = test system: UACC-257 melanoma
SK-MEL-28 melanoma = test system: SK-MEL-28 melanoma
HT29 colon = test system: HT29 colon
SK-MEL-5 melanoma = test system: SK-MEL-5 melanoma
HCT-15 colon = test system: HCT-15 colon
ACHN renal = test system: ACHN renal
HOP-92 NSCLC = test system: HOP-92 NSCLC
RXF 393 renal = test system: RXF 393 renal
MALME-3M melanoma = test system: MALME-3M melanoma
EKVX NSCLC = test system: EKVX NSCLC
M14 melanoma = test system: M14 melanoma
DLD-1 colon = test system: DLD-1 colon
M19-MEL melanoma = test system: M19-MEL melanoma
HCT-116 colon = test system: HCT-116 colon
SNB-75 CNS = test system: SNB-75 CNS
DMS 273 small cell lung = test system: DMS 273 small cell lung
SNB-19 CNS = test system: SNB-19 CNS
KM12 colon = test system: KM12 colon
NCI-H23 lung = test system: NCI-H23 lung
UO-31 renal = test system: UO-31 renal
OVCAR-3 ovarian = test system: OVCAR-3 ovarian
LXFL 529 NSCLC = test system: LXFL 529 NSCLC
RXF-631 renal = test system: RXF-631 renal
MOLT-4 leukemia = test system: MOLT-4 leukemia
SN12C renal = test system: SN12C renal
SK-OV-3 ovarian = test system: SK-OV-3 ovarian
A498 renal = test system: A498 renal
CAKI-1 renal = test system: CAKI-1 renal
LOX IMVI melanoma = test system: LOX IMVI melanoma
SR leukemia = test system: SR leukemia
DMS 114 small cell lung = test system: DMS 114 small cell lung

`O=C1CCC(=O)N1CNc1cccc(NCN2C(=O)CCC2=O)c1` showed a TGI (HL-60(TB) leukemia) of 49.8 µM, a TGI (U251 CNS) of over 100 µM and a TGI (SNB-78 CNS) of over 100 µM. The TGI (HOP-62 NSCLC) was over 100 µM, the TGI (SF-539 CNS) was over 100 µM and the TGI (A549 NSCLC) was over 100 µM. For the same compound, the TGI (786-0 renal) was over 100 µM, the TGI (NCI-H460 lung) was over 100 µM and the TGI (OVCAR-8 ovarian) was over 100 µM. The TGI (OVCAR-5 ovarian) was over 100 µM, the TGI (COLO 205 colon) was over 100 µM and the TGI (K-562 leukemia) was over 100 µM. It also gave a TGI (TK-10 renal) of over 100 µM, a TGI (SK-MEL-2 melanoma) of over 100 µM and a TGI (IGROV1 ovarian) of over 100 µM. For the same compound, the TGI (SF-295 CNS) was over 100 µM, the TGI (KM20L2 colon) was 28.4 µM and the TGI (SF-268 CNS) was over 100 µM. For the same compound, the TGI (CCRF-CEM leukemia) was over 100 µM, the TGI (UACC-62 melanoma) was over 100 µM and the TGI (HCC-2998 colon) was over 100 µM. It also gave a TGI (OVCAR-4 ovarian) of over 100 µM, a TGI (RPMI-8226 leukemia) of 46.1 µM and a TGI (SW-620 colon) of over 100 µM. For the same compound, the TGI (XF 498 CNS) was over 100 µM, the TGI (NCI-H522 lung) was over 100 µM and the TGI (UACC-257 melanoma) was over 100 µM. The TGI (SK-MEL-28 melanoma) was over 100 µM, the TGI (HT29 colon) was over 100 µM and the TGI (SK-MEL-5 melanoma) was over 100 µM. For the same compound, the TGI (HCT-15 colon) was over 100 µM, the TGI (ACHN renal) was over 100 µM and the TGI (HOP-92 NSCLC) was over 100 µM. The TGI (RXF 393 renal) was over 100 µM, the TGI (MALME-3M melanoma) was over 100 µM and the TGI (EKVX NSCLC) was over 100 µM. It also gave a TGI (M14 melanoma) of over 100 µM, a TGI (DLD-1 colon) of over 100 µM and a TGI (M19-MEL melanoma) of over 100 µM. It also gave a TGI (HCT-116 colon) of over 100 µM, a TGI (SNB-75 CNS) of over 100 µM and a TGI (DMS 273 small cell lung) of over 100 µM. It also gave a TGI (SNB-19 CNS) of over 100 µM, a TGI (KM12 colon) of over 100 µM and a TGI (NCI-H23 lung) of over 100 µM. It also gave a TGI (UO-31 renal) of over 100 µM, a TGI (OVCAR-3 ovarian) of over 100 µM and a TGI (LXFL 529 NSCLC) of over 100 µM. It also gave a TGI (RXF-631 renal) of over 100 µM, a TGI (MOLT-4 leukemia) of over 100 µM and a TGI (SN12C renal) of over 100 µM.

For `Cn1ccnc1Cn1cc(-c2cccc(-c3cn[nH]c3)c2)cn1`, the TGI (HL-60(TB) leukemia) was over 100 µM, the TGI (U251 CNS) was over 100 µM and the TGI (SNB-78 CNS) was over 100 µM. The TGI (HOP-62 NSCLC) was over 100 µM, the TGI (A549 NSCLC) was over 100 µM and the TGI (786-0 renal) was over 100 µM. It also gave a TGI (SK-OV-3 ovarian) of 41.9 µM, a TGI (NCI-H460 lung) of over 100 µM and a TGI (OVCAR-8 ovarian) of over 100 µM. It also gave a TGI (COLO 205 colon) of over 100 µM, a TGI (K-562 leukemia) of over 100 µM and a TGI (TK-10 renal) of over 100 µM. For the same compound, the TGI (SK-MEL-2 melanoma) was over 100 µM, the TGI (SF-295 CNS) was over 100 µM and the TGI (A498 renal) was over 100 µM. It also gave a TGI (KM20L2 colon) of over 100 µM, a TGI (SF-268 CNS) of over 100 µM and a TGI (CCRF-CEM leukemia) of over 100 µM. For the same compound, the TGI (UACC-62 melanoma) was 49 µM, the TGI (HCC-2998 colon) was over 100 µM and the TGI (OVCAR-4 ovarian) was over 100 µM. For the same compound, the TGI (RPMI-8226 leukemia) was over 100 µM, the TGI (CAKI-1 renal) was over 100 µM and the TGI (SW-620 colon) was over 100 µM. For the same compound, the TGI (XF 498 CNS) was over 100 µM, the TGI (NCI-H522 lung) was over 100 µM and the TGI (UACC-257 melanoma) was over 100 µM. It also gave a TGI (LOX IMVI melanoma) of over 100 µM, a TGI (SR leukemia) of over 100 µM and a TGI (SK-MEL-28 melanoma) of over 100 µM. For the same compound, the TGI (SK-MEL-5 melanoma) was over 100 µM, the TGI (HCT-15 colon) was over 100 µM and the TGI (ACHN renal) was over 100 µM. For the same compound, the TGI (HOP-92 NSCLC) was over 100 µM, the TGI (RXF 393 renal) was over 100 µM and the TGI (EKVX NSCLC) was 99.8 µM. For the same compound, the TGI (M14 melanoma) was over 100 µM, the TGI (DMS 114 small cell lung) was over 100 µM and the TGI (DLD-1 colon) was over 100 µM. It also gave a TGI (M19-MEL melanoma) of over 100 µM, a TGI (HCT-116 colon) of over 100 µM and a TGI (SNB-75 CNS) of over 100 µM. The TGI (DMS 273 small cell lung) was over 100 µM, the TGI (SNB-19 CNS) was over 100 µM and the TGI (KM12 colon) was over 100 µM. It also gave a TGI (UO-31 renal) of over 100 µM, a TGI (OVCAR-3 ovarian) of over 100 µM and a TGI (LXFL 529 NSCLC) of over 100 µM. The TGI (RXF-631 renal) was over 100 µM, the TGI (MOLT-4 leukemia) was over 100 µM and the TGI (SN12C renal) was over 100 µM.

From PubChem BioAssay (NCI)
